Measured values from patent publication USRE42890E1, “Furazanobenzimidazoles” (Basilea Pharmaceutica AG, priority 2003, dated 2011).
Like-named read-outs stand apart in the source and are kept apart here.

What was measured:
Jurkat = assay: MTS proliferation assay, Jurkat; type: cell-based, human; settings: 72 h incubation, read-out: MTS proliferation assay IC 50 Jurkat
Method: (§1) Cell lines are cultured in RPMI-1640 tissue culture medium containing either 5% or 10% fetal calf serum, 0.05 mM 2-mercaptoethanol, 2 mM glutamine and penicillin/streptomycin 50 μg/ml (complete medium) (Sigma, Buchs, Switzerland). General growth conditions are 37° C. and 7.5% CO2.
(§2) The following human cell lines (either EGFP transfected or not) are being used: HeLa (ATCC: CCL-2), KB (ATCC: CCL-17), MCF7 (ATCC: HTB-22), SK-BR-3 (ATCC: HTB-30), SK-Mel 1 (ATCC: HTB-67), SK-Mel 28 (ATCC: HTB-72), PC-3 (ATCC: CRL-1435), SW 480 (ATCC: CCL-228), NCl-H460 (ATCC: HTB-177), NCl-H1792 (ATCC: CRL-5895), HT1080 (ATCC: CCL-21), Jurkat (ATCC: TIB-152), Ramos (ATCC: CRL-1596), Raji (ATCC: CCL-86), H9 (ATCC: HTB-176), Hut78 (ATCC: TIB-161), K562 (ATCC: CCL 243), HL-60 (ATCC: CCL 240), U-87MG (ATCC: HTB-14), HepG2 (ATCC: HB-8065), U-2 OS (ATCC: HTB-96), Saos-2 (ATCC: HTB-85), U937 (ATCC: CRL 1593), Hs 578T (ATCC: HTB 126), HBL-100 (ATCC: HTB 124), Molt-4 (ATCC: CRL 1582).
(§3) The assay is performed in 96 well tissue culture plates. The cells (range: 1.5*10^3-10^4) are seeded out in 80 μl complete medium 24 h prior to compound treatment. The test compounds are added in 20 μl complete medium containing max 5% DMSO. The final compound concentrations in the assays are 10 μM, 3 μM, 1 μM and 0.3 μM, respectively. The assay plates are incubated for 72 h at culture conditions. The MTS reagent is prepared according to the manufacturer's protocol (Promega G1111). 20 μl MTS reagent are added to each well, the assay plates are quickly spun and incubated for another 3 h at culture conditions. Subsequently, the plates are shortly shaked and absorption measured with a microplate-reader at 492 nm.

HeLa = assay: MTS proliferation assay, HeLa; type: cell-based, human; settings: 72 h incubation, read-out: MTS proliferation assay IC 50 HeLa
Method: as §1, §2, §3

MRC5 = assay: MTS proliferation assay, MRC5; type: cell-based; settings: MRC5, 72 h incubation, read-out: MTS proliferation assay IC 50 MRC5
Method: as §1, §3

[1] = system: adherent cells or suspension cells; assay: Hoechst 33342 nuclear staining (fraction of apoptotic nuclei); type: cell-based; design: key: 0 relating to no activity; 1 relating to weak activity comprising less than 70% of the cells; score 2 relating to strong activity comprising more than 70% of the cells
Method: as §1
This assay is performed in 96 well tissue culture plates. Appropriate number of cells (adherent cells: 3-5*10^3, suspension cells: 8-10*10^3) are being seeded out in 80 μl complete medium. Adherent cells are incubated for 24 h for proper spreading out before addition of test compounds while suspension cells are immediately treated with test compounds after seeding out. The test compounds are added in 20 μl complete medium containing max 5% DMSO. […] After 24 h or 48 h incubation at culture conditions, 10 μl medium containing Hoechst 33342 dye (Sigma B-2261) at 2-5 μg/ml are added to each well. The assay plates are then further incubated for 30 minutes and subsequently analyzed with a standard inverted fluorescence microscope.
The readout allows the determination of the fraction of apoptotic nuclei as well as other morphological criteria specific for apoptosis as a function of the treatment. The following scores are used: 0 relating to no activity, 1 relating to weak activity comprising less than 70% of the cells and score 2 relating to strong activity comprising more than 70% of the cells.

HT1080 = assay: MTS proliferation assay, HT1080; type: cell-based, human; settings: HT1080, 72 h incubation; read-out: MTS proliferation assay IC 50 HT1080
Method: as §1, §2, §3

IC50 (Jurkat)	IC50 (HeLa)	SMILES	Hoechst 33342 nuclear staining score ([1]; HeLa, conc 0.01 μm)	Hoechst 33342 nuclear staining score ([1]; HeLa, conc 0.1 μm)	Hoechst 33342 nuclear staining score ([1]; HeLa, conc 1 μm)	Hoechst 33342 nuclear staining score ([1]; Jurkat, conc 0.01 μm)	Hoechst 33342 nuclear staining score ([1]; Jurkat, conc 0.1 μm)	Hoechst 33342 nuclear staining score ([1]; Jurkat, conc 1 μm)	Hoechst 33342 nuclear staining score ([1]; MRC5, conc 0.01 μm)	Hoechst 33342 nuclear staining score ([1]; MRC5, conc 0.1 μm)	Hoechst 33342 nuclear staining score ([1]; MRC5, conc 1 μm)	Hoechst 33342 nuclear staining score ([1]; PBLs, conc 0.01 μm)	Hoechst 33342 nuclear staining score ([1]; PBLs, conc 0.1 μm)	Hoechst 33342 nuclear staining score ([1]; PBLs, conc 1 μm)	IC50 (MRC5)	Hoechst 33342 nuclear staining score ([1]; H460, conc 0.01 μm)	Hoechst 33342 nuclear staining score ([1]; H460, conc 0.1 μm)	Hoechst 33342 nuclear staining score ([1]; H460, conc 1 μm)	Hoechst 33342 nuclear staining score ([1]; Jily, conc 0.01 μm)	Hoechst 33342 nuclear staining score ([1]; Jily, conc 0.1 μm)	also measured
–	–	CC(=O)Nc1nonc1-c1nc2ccccc2n1CC(=O)c1ccc(Cl)cc1 [Example 5, N-{4-[1-(4-Chlorophenacyl)-1H-benzimidazol-2-yl]-furazan-3-yl}-acetamide]	0	0	2 (score 2 relating to strong activity comprising more than 70% of the cells)	0	0	2 (score 2 relating to strong activity comprising more than 70% of the cells)	0	0	0	0	0	0	–	–	–	–	–	–	IC50 (Jurkat; Homo sapiens): 100 to 1000 nM; IC50 (HeLa; Homo sapiens): 100 to 1000 nM; IC50 (MRC5; Homo sapiens): 100 to 1000 nM
100 to 1000 nM	100 to 1000 nM	COc1cccc(C(=O)Cn2c(-c3nonc3N)nc3ccccc32)c1 [Example 23]	0	0	2 (score 2 relating to strong activity comprising more than 70% of the cells)	0	0	2 (score 2 relating to strong activity comprising more than 70% of the cells)	0	0	0	0	0	0	100 to 1000 nM	–	–	–	–	–	–
> 1000 nM	> 1000 nM	Nc1nonc1-c1nc2ccccc2n1CC(=O)c1ccc(-c2ccccc2)cc1 [Example 26]	0	0	0	0	0	0	0	0	0	0	0	0	> 1000 nM	0	0	0	0	0	Hoechst 33342 nuclear staining score ([1]; Jily, conc 1 μm): 0
100 to 1000 nM	100 to 1000 nM	Nc1nonc1-c1nc2ccccc2n1CC(=O)c1ccccc1Cl [Example 32]	0	0	0	0	0	2 (score 2 relating to strong activity comprising more than 70% of the cells)	0	0	0	0	0	0	> 1000 nM	0	0	0	0	0	Hoechst 33342 nuclear staining score ([1]; Jily, conc 1 μm): 0
> 1000 nM	> 1000 nM	CCN(CC)c1ccc(C(=O)Cn2c(-c3nonc3N)nc3ccccc32)cc1 [Example 39]	0	0	0	0	0	0	0	0	0	0	0	0	> 1000 nM	0	0	0	0	0	Hoechst 33342 nuclear staining score ([1]; Jily, conc 1 μm): 0
100 to 1000 nM	100 to 1000 nM	CC(=O)Nc1nonc1-c1nc2ccccc2n1CC(=O)c1ccccc1 [Example 40]	0	0	0	0	0	0	0	0	0	0	0	0	> 1000 nM	0	0	0	0	0	Hoechst 33342 nuclear staining score ([1]; Jily, conc 1 μm): 1 (1 relating to weak activity comprising less than 70% of the cells)
> 1000 nM	> 1000 nM	N#Cc1ccc(C(=O)Cn2c(-c3nonc3N)nc3ccccc32)cc1 [Example 63]	0	0	0	0	0	0	0	0	0	0	0	0	> 1000 nM	0	0	0	0	0	IC50 (HT1080): > 1000 nM; Hoechst 33342 nuclear staining score ([1]; Jily, conc 1 μm): 0
100 to 1000 nM	> 1000 nM	Cc1cc2nc(-c3nonc3N)n(CC(=O)c3ccc(Br)cc3)c2cc1C [Example 109]	0	0	0	0	0	0	0	0	0	0	0	0	> 1000 nM	0	0	0	0	0	Hoechst 33342 nuclear staining score ([1]; Jily, conc 1 μm): 0
